Laboratory results published in ChEMBL document CHEMBL4406923, “New Potent DOT1L Inhibitors for in Vivo Evaluation in Mouse” (ACS Med Chem Lett, 2019).
Calls of active or inactive are those of the source. The rule behind the calls is not given here.

Experiments:
[1] = target: T1, Histone-lysine N-methyltransferase EHMT2 (Homo sapiens) (UniProt Q96KQ7); assay: Inhibition of G9a (unknown origin) at <5 uM using histone H3 peptide (1 to 21) as substrate in presence of co-factor SAM by LC-MS analysis
T1 sequence (whole entry): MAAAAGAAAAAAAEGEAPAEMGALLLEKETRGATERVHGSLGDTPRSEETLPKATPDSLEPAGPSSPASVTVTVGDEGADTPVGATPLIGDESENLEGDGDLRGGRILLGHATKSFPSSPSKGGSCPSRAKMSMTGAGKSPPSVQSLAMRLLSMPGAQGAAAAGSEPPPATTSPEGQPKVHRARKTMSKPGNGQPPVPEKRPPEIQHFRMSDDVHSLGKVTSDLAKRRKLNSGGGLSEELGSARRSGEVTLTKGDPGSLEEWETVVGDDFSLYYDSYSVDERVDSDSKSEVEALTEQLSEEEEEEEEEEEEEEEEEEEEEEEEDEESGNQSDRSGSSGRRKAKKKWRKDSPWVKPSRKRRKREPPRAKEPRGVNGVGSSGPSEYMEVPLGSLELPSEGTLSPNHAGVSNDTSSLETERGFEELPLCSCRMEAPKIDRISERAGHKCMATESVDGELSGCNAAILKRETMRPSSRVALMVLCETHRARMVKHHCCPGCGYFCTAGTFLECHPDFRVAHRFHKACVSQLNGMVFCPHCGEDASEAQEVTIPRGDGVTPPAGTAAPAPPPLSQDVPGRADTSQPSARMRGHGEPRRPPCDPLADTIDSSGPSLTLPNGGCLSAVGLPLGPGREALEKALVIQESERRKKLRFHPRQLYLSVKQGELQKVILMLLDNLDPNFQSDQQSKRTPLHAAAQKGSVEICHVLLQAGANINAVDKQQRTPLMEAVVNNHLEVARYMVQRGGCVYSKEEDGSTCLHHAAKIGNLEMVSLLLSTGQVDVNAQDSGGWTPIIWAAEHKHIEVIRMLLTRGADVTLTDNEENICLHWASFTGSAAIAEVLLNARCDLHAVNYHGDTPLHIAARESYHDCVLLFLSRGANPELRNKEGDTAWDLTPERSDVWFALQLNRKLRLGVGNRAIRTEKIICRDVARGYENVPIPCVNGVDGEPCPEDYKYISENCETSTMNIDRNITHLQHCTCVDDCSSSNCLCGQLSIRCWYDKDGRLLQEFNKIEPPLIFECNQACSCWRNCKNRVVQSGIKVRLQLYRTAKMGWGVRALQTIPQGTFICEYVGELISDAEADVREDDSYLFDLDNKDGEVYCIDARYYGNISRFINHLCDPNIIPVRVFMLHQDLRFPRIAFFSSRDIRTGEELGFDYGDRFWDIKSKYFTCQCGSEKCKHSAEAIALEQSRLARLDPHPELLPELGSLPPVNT

[2] = Drug concentration in C57BL/6 mouse blood at 300 mg/kg, po administered daily for 7 days; format: ADME, organism-based; conditions: in vivo, 168 h
Mus musculus = assay: In vivo inhibition of DOT1L in C57BL/6 mouse xenografted with human MV4-11 cells assessed as reduction in HOXA9 gene expression at <6 fold 300 mg/kg, po relative to control; format: functional
[3] = Drug concentration in C57BL/6 mouse blood at 300 mg/kg, po measured after 24 hrs; format: ADME, organism-based; conditions: read-out: Drug uptake
[4] = target: Histone-lysine N-methyltransferase SUV39H2 (Homo sapiens) (UniProt Q9H5I1); assay: Inhibition of Suv39H2 (unknown origin) at <5 uM using histone H3 peptide (1 to 21) as substrate in presence of co-factor SAM by LC-MS analysis
Sequence of Histone-lysine N-methyltransferase SUV39H2 (Homo sapiens) (Q9H5I1 whole entry): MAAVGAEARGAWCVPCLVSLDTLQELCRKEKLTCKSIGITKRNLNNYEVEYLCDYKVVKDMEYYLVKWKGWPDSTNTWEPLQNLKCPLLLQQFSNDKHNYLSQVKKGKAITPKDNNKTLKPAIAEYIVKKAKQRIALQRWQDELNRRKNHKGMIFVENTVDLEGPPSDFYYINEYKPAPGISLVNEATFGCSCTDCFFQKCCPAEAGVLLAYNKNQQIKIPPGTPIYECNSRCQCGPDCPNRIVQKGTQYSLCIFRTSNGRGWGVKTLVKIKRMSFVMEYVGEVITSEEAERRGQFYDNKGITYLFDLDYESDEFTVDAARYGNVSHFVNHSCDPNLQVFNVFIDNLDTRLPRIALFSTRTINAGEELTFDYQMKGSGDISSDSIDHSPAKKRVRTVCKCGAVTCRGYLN

[5] = target: MLL1/ASH2L/RBBP5/WDR5 complex (Homo sapiens) (UniProt P61964+Q03164+Q9UBL3+Q15291); assay: Inhibition of MLL (MLL/ASH2L/RBBP5/WDR5) (unknown origin) at <5 uM using histone H3 peptide (1 to 21) as substrate in presence of co-factor SAM by LC-MS analysis; format: protein-complex assay
[6] = target: T2, Histone-lysine N-methyltransferase SETD7 (Homo sapiens) (UniProt Q8WTS6); assay: Inhibition of Set7/9 (unknown origin) at <5 uM using H3 (1 to 21) as substrate in presence of co-factor SAM by LC-MS analysis
T2 sequence (whole entry): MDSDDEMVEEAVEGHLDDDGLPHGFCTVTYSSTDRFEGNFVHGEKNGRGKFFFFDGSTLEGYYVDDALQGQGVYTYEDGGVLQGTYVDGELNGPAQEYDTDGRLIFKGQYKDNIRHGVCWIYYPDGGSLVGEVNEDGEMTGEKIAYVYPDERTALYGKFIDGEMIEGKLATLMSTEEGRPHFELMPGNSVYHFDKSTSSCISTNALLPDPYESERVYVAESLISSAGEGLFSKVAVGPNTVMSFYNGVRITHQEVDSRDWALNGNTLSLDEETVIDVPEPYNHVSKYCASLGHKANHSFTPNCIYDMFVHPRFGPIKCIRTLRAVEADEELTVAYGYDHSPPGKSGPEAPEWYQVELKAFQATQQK

MV4-11 = assay: Antitumor activity against human MV4-11 cells xenografted in C57BL/6 mouse assessed as reduction in tumor growth at <6 fold 300 mg/kg, po relative to control; format: functional
Homo sapiens = organism: Homo sapiens; assay: Inhibition of PRC2 complex of human full-length N-terminal FLAG-tagged EZH2/EED/SUZ12/AEBP2/RbAp48 expressed in baculovirus expression system at <5 uM using histone H3 peptide (21 to 44) as substrate in presence of co-factor SAM by LC-MS analysis
[7] = target: T3, N-lysine methyltransferase KMT5A (Homo sapiens) (UniProt Q9NQR1); assay: Inhibition of SETD8 (unknown origin) at <5 uM using H4 (11 to 33 residues) as substrate in presence of co-factor SAM by LC-MS analysis
T3 sequence (whole entry): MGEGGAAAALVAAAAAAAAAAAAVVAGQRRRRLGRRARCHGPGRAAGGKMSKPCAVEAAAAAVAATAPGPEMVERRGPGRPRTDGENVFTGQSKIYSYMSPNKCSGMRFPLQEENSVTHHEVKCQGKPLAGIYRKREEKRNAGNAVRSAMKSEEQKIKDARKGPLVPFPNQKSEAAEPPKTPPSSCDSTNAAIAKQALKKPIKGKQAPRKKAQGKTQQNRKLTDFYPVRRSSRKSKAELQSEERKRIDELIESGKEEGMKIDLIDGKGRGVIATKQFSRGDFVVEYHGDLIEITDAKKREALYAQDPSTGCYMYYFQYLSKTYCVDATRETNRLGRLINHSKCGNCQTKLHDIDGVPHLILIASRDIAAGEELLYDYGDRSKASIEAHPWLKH

[8] = target: Histone-lysine N-methyltransferase SETD2 (Homo sapiens) (UniProt Q9BYW2); assay: Inhibition of SETD2 (unknown origin) at <5 uM using histone H3 peptide (21 to 44) as substrate in presence of co-factor SAM by LC-MS analysis
Sequence of Histone-lysine N-methyltransferase SETD2 (Homo sapiens) (Q9BYW2 whole entry): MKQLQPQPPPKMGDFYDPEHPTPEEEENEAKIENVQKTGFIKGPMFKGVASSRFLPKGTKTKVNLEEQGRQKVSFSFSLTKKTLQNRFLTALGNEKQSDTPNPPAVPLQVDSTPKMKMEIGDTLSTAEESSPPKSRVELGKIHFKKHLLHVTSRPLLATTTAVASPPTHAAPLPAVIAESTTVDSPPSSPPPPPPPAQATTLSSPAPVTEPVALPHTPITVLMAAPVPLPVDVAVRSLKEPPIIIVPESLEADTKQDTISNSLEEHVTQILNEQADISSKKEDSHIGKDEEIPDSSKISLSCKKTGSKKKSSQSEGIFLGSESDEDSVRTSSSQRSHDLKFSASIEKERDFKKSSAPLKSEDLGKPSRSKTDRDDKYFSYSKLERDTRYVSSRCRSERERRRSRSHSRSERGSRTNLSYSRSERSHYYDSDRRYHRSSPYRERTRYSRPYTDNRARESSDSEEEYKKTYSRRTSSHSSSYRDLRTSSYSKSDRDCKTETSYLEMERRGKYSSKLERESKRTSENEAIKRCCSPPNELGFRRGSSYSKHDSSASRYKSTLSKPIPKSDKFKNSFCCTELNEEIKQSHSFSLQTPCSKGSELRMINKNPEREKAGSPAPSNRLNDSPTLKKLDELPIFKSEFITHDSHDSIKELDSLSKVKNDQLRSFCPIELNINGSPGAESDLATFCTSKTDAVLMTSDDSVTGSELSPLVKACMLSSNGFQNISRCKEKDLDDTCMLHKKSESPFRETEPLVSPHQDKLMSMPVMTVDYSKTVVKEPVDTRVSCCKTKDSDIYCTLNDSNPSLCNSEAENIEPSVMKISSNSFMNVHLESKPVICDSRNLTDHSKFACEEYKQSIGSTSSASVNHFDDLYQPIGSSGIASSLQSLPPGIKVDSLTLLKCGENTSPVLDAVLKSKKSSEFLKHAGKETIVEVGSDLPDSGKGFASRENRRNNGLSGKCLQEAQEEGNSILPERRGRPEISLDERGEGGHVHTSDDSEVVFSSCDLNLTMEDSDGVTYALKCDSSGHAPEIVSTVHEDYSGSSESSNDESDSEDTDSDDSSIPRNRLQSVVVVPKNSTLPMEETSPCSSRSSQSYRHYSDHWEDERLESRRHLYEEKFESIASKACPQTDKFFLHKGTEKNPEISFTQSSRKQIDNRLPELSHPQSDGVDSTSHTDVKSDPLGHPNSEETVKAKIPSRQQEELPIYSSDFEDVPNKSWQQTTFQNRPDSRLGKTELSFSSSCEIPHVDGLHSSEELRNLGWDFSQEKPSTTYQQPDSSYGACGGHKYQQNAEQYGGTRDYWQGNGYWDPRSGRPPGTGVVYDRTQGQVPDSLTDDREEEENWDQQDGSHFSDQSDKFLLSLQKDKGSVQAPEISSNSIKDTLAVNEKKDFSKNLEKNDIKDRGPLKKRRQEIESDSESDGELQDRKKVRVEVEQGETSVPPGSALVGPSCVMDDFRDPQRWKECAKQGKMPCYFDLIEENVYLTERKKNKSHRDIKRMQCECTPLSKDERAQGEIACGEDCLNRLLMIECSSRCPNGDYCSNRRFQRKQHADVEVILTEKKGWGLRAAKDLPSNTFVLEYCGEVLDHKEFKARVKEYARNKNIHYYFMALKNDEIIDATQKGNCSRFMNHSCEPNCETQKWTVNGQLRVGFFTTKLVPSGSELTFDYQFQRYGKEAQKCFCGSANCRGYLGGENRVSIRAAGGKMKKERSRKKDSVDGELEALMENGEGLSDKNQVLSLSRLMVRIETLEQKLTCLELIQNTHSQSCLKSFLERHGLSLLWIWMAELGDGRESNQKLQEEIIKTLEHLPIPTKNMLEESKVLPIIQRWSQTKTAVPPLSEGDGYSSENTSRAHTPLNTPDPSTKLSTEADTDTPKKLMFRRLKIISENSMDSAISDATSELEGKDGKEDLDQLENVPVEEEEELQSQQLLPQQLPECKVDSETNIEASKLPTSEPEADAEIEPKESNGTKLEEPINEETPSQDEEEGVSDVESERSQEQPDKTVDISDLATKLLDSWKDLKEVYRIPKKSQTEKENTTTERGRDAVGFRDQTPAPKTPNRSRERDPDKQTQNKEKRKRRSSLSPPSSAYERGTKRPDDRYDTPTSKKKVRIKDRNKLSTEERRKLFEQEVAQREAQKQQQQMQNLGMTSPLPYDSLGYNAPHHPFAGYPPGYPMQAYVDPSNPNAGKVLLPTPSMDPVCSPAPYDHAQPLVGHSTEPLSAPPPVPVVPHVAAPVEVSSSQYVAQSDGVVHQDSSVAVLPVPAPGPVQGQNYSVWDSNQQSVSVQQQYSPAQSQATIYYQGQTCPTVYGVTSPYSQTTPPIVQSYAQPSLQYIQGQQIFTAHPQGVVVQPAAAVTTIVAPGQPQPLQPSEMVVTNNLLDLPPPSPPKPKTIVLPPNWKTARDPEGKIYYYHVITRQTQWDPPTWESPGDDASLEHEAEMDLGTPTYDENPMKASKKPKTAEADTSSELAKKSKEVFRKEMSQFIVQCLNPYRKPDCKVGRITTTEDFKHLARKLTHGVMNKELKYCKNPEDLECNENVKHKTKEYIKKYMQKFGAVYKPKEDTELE

inhibition [1]: inactive | Drug uptake [2]: Active | concentration at 24 h [3]: 4 to 8 µM | inhibition [4]: inactive | inhibition [5]: inactive | inhibition [6]: inactive | inhibition (Homo sapiens): inactive | inhibition [7]: inactive | inhibition [8]: inactive
Structure (SMILES): COc1nc(Nc2cc(S(C)(=O)=O)ccc2N[C@@H](c2cccc3c2OC(F)(F)O3)c2ncccc2Cl)nc(N2CCNCC2)n1
fold change (FC) (Mus musculus): <0.5 | fold change (FC) (MV4-11): <0.5
